Test results: ChEMBL document CHEMBL1148413, “5-Fluorinated L-lysine analogues as selective induced nitric oxide synthase inhibitors” (J Med Chem, 2004)

Key:
Nitric oxide synthase 1 [1] = target: T1, Nitric oxide synthase 1 (Homo sapiens, UniProt P29475); test: Selectivity for Neuronal nitric oxide synthase over inducible nitric oxide synthase
[2] = target: T2, Nitric oxide synthase, inducible (Homo sapiens, UniProt P35228); test: Inhibition concentration against Inducible nitric oxide synthase (iNOS) at 10 uM concentration
T2 sequence (P35228 whole entry): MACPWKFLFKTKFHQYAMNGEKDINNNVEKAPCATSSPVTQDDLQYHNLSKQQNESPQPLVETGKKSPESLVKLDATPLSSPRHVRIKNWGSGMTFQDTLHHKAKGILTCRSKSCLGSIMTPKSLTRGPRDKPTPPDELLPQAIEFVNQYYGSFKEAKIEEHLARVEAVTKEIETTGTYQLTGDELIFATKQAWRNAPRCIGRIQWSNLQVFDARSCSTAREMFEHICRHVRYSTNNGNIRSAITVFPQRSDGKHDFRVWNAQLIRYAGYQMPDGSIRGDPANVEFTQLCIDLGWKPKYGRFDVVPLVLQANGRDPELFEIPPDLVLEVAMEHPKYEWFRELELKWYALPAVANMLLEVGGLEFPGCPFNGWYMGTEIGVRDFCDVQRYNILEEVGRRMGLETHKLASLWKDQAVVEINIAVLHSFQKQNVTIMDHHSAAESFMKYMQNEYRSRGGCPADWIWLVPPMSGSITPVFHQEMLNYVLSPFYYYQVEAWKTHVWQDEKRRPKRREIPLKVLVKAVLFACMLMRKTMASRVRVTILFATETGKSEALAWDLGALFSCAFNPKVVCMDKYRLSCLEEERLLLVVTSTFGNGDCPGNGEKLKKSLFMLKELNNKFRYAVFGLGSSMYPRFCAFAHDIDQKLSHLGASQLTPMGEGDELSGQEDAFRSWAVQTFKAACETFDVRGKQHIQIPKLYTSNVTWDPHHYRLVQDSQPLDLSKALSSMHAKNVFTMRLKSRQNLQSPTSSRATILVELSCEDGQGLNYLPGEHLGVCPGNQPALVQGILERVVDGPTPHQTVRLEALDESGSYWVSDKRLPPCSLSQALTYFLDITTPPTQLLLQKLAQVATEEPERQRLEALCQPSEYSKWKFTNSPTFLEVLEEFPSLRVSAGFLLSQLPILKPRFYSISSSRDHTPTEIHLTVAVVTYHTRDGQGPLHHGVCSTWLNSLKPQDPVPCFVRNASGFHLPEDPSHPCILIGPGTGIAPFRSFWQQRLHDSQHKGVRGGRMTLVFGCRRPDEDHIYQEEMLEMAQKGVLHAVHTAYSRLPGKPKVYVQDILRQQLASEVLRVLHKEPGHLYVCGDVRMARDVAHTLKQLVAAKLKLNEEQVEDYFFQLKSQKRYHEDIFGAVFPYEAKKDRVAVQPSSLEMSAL

[3] = target: T3, Nitric oxide synthase 3 (Homo sapiens) (UniProt P29474); test: Selectivity for endothelial nitric oxide synthase over inducible nitric oxide synthase
T3 sequence (whole entry): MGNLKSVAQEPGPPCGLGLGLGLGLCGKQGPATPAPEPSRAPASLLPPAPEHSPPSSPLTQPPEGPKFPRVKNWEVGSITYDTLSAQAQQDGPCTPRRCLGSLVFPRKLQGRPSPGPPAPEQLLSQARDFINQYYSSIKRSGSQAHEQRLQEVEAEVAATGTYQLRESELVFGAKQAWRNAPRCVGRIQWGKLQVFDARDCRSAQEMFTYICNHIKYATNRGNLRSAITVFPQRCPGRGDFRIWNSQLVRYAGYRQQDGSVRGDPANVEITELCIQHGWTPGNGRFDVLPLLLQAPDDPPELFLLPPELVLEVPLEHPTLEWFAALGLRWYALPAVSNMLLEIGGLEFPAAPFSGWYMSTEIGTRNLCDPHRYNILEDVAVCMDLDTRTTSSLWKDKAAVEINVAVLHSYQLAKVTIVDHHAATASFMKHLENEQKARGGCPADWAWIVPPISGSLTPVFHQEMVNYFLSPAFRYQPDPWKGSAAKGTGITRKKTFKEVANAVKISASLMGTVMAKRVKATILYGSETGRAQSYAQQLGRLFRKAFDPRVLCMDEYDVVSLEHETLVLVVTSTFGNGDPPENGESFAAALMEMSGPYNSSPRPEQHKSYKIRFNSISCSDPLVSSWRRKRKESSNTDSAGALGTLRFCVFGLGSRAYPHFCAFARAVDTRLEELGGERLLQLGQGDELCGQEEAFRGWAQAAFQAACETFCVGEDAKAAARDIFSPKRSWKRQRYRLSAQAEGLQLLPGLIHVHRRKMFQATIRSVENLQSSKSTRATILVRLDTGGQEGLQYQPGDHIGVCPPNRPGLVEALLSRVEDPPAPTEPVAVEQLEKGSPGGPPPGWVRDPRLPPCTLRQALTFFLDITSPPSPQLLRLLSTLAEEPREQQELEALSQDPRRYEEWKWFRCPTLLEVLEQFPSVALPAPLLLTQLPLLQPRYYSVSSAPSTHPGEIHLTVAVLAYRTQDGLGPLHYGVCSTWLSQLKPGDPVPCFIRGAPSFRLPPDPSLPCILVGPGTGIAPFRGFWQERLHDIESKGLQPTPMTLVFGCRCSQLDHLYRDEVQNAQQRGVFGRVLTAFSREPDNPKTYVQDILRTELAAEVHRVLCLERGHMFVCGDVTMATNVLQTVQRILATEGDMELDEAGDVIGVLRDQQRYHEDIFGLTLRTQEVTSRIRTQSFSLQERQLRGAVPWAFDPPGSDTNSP

Nitric oxide synthase 1 [4] = target: T1, Nitric oxide synthase 1; test: Inhibition concentration against Neuronal nitric oxide synthase (nNOS) at 10 uM concentration
Nitric oxide synthase 3 [5] = target: T4, Nitric oxide synthase 3 (Homo sapiens, UniProt P29474); test: (§1) Inhibition concentration against Endothelial nitric oxide synthase (eNOS) at 10 uM concentration
T4 sequence (P29474 whole entry): T3 sequence (whole entry)

[6] = target: T2, Nitric oxide synthase, inducible; settings: 10 uM
Nitric oxide synthase 3 [7] = target: T4, Nitric oxide synthase 3; test: Percent inhibition against Endothelial nitric oxide synthase (eNOS) at 10 uM concentration
Nitric oxide synthase 1 [8] = target: T1, Nitric oxide synthase 1; settings: 10 uM
[9] = target: T3, Nitric oxide synthase 3 (Homo sapiens); test: as §1

T1 sequence (P29475 whole entry): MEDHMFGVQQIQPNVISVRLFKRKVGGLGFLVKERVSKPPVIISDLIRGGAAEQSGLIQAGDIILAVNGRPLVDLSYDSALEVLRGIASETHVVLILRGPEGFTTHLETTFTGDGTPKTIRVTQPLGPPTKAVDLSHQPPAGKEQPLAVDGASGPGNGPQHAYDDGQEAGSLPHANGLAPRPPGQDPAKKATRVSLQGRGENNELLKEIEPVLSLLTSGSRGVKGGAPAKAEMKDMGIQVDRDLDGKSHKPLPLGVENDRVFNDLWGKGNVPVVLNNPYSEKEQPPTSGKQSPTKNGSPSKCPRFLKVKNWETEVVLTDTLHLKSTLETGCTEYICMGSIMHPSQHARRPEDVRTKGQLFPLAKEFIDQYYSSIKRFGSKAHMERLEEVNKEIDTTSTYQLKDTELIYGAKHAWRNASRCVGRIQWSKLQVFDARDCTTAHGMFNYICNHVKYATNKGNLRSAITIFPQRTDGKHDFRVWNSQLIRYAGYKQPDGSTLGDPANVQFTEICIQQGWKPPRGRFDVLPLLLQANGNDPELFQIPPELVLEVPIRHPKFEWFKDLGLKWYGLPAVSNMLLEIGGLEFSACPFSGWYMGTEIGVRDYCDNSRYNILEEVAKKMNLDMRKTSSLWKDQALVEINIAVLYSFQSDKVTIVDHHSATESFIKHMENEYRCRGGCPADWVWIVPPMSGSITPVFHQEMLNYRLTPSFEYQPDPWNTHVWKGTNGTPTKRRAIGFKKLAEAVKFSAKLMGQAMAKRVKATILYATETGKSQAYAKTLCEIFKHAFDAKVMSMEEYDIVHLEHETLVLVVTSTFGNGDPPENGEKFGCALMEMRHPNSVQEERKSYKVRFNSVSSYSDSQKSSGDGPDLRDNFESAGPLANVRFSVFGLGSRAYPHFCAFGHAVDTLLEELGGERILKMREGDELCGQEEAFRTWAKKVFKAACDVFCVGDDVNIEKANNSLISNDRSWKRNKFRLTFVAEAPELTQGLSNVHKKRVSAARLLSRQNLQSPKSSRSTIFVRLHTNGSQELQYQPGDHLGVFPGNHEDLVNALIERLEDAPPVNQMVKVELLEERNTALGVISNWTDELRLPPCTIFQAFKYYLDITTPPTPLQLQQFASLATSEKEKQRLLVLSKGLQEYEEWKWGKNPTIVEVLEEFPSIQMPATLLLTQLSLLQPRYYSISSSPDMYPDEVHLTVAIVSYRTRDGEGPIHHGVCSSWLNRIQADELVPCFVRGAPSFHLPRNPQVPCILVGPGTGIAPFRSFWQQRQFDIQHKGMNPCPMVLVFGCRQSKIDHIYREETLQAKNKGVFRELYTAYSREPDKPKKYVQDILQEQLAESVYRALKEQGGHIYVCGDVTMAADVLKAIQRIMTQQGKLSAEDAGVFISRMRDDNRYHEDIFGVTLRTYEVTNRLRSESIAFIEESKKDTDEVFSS

SMILES	Selectivity (Nitric oxide synthase 1 [1])	IC50 [2]	Selectivity [3]	IC50 (Nitric oxide synthase 1 [4])	IC50 (Nitric oxide synthase 3 [5])	inhibition [6]	Inhibition (Nitric oxide synthase 3 [7])	inhibition (Nitric oxide synthase 1 [8])	inhibition [9]
CC(=N)NCCCC[C@H](N)C(=O)O [L-NIL]	7	4.9 µM	28						
CC(=N)NCC(F)CCC(N)C(=O)O (centres undefined)	9	7.84 µM	23	70.4 µM	182 µM				
CC(=N)NC[C@@H](F)CC[C@H](N)C(=O)O	9	2.36 µM	34	21.7 µM	81 µM				
CC(=N)NC[C@@H](F)CC[C@@H](N)C(=O)O	7	47.8 µM	8	311 µM	374 µM				
CC(=N)NCC(F)(F)CC[C@H](N)C(=O)O	4	8.75 µM	7	33.8 µM	57.5 µM				
CC(=N)NCC(F)(F)CCC(N)C(=O)O (centres undefined)	7	21.4 µM	7	140 µM	139 µM				
CC(=N)NC[C@H](F)CC[C@H](N)C(=O)O						4%	28.2%	0%	
CC(=N)NC[C@H](F)CC[C@@H](N)C(=O)O						8.9%		18%	6.52%
